Measurements as given in patent US11702417B2, “Compounds for improving mRNA splicing” (The General Hospital Corporation, priority 2015, dated 2023).

Tested on: FD (familial dysautomonia) IKBKAP minigene, exon 20 inclusion, in HEK293T cells
Assay: Primary splicing assay (FD IKBKAP minigene, Firefly/Renilla luciferase reporter in HEK293T)
Assay type: cell-based, human
Conditions: Homo sapiens, HEK-293T, Firefly/Renilla ratio, 24 hours of treatment; for EC (maximum kinetin efficacy): HEK293T, read-out: ECk (compound concentration at which the maximum kinetin efficacy (200 μM) is reached); for Emax: max efficacy in Primary Assay, kinetin and DMSO as positive and negative controls, read-out: Emax (%)
Experimental: As used herein, the expression “ECk” refers to the compound concentration at which the maximum kinetin efficacy (200 μM) is reached.
Splicing analysis was made possible by using an FD (familial dysautomonia) IKBKAP minigene which contained exon 19 through exon 21, including intervening introns, and also the T→C Thymine to cytosine transition located 6 base-pairs from the end of IKBKAP exon 20; See SEQ ID NO:3 for the complete sequence of plasmid pcDNA3.1/V5HisTOPO with Renilla-Familial Dysautonomia minigene-Firefly. Firefly luciferase (SEQ ID NO:14) was utilized as a splicing reporter, located downstream of exon 21, and Renilla luciferase (SEQ ID NO:13) was used as a control, located upstream of exon 19. The sequence of exon 19 is presented as SEQ ID NO:7; the Intron between Exon 19 and Exon 20 is SEQ ID NO:8; exon 20 is SEQ ID NO:9; the intron between […]; exon 21 is SEQ ID NO: 11, and the spliced sequence of exons 19-20-21 is SEQ ID NO:12. HEK293T cells were plated in a 6-well plate 24 hours prior to transfection. Transfection was carried out using a mixture of Opti-MEM (GIBCO ref. 31985), IKBKAP minigene, and Fugene HID (PROMEGA ref. E2311), incubated in DMEM media containing HEK293T cells at 37° C. The ratio of Opti-MEM, minigene, and Fugene was kept at approximately 9:1.5:1, with a total volume of 150 μL of transfection mixture applied per well.
After 4 hours of transfection, the cells were then plated in a 96-well plate coated with poly-L-lysine (SIGMA cat.P4707) for treatment scheduled 24 hours later. […] After 24 hours of treatment, cells were washed in the poly-L-lysine coated 96-well plate using PBS and subsequently harvested using Passive Lysis Buffer (Promega cat.E196). Cell lysate was transferred to a black and white 96-well plate and analyzed for splicing correction using a Glomax luminometer (PROMEGA GloMax® 96 Microplate Luminometer w/Dual Injectors cat.E6521) and Promega Dual Glo Firefly and Stop and Glo Renilla reagents (Cat.E196). The compound's ability to correct splicing and promote exon 20 inclusion was marked by an increase in Firefly signal. Renilla signal, which is independent of exon 20 inclusion, was used to correct for cell number. Using the ratio of Firefly to Renilla signal, a dose response curve was produced, which referenced kinetin and DMSO Firefly/Renilla ratios as positive and negative controls, respectively.

In the case of OCCn1ncc2c(NCc3ccco3)nc(Cl)nc21 [(209)], the EC (maximum kinetin efficacy) is reported as 12.2 µM and the Emax is reported as 176%.

For Clc1nc(NCc2ccncn2)c2c(Cl)c[nH]c2n1 [(210)], the EC (maximum kinetin efficacy) was 69.2 µM and the Emax was 104%.

For OCCn1cc(Cl)c2c(NCc3ccco3)nc(Cl)nc21 [(211)], the EC (maximum kinetin efficacy) was 7.73 µM and the Emax was 204%.

For FCCn1cc(Cl)c2c(NCc3ccco3)nc(Cl)nc21 [(212)], the Emax was 71%.

CNCCn1ccc2c(NCc3ccco3)nc(Cl)nc21 [(213)] was tested, and the Emax was 36%.

FCCn1ncc2c(NCc3ccco3)nc(Cl)nc21 [(214)] gave an EC (maximum kinetin efficacy) of 11.2 µM and an Emax of 197%.

C[C@@H](C#N)n1ccc2c(NCc3ccco3)nc(Cl)nc21 [(216)] was tested, and the Emax was 16%.

Clc1nc(NCc2ccncc2)c2cn[nH]c2n1 [(217)] showed an EC (maximum kinetin efficacy) of 7.07 µM and an Emax of 151%.

OCCn1ncc2c(NCc3ccncc3)nc(Cl)nc21 [(218)] was tested, and the EC (maximum kinetin efficacy) was 21 µM and the Emax was 154%.

Work on Clc1nc(NCc2ccncn2)c2cn[nH]c2n1 [(220)] yielded an EC (maximum kinetin efficacy) of 8.62 µM and an Emax of 153%.

With O=C(NCCO)c1cc2c(NCc3ccco3)nc(Cl)nc2[nH]1 [(221)] the Emax was 86%.

Clc1nc(NCc2nccs2)c2cn[nH]c2n1 [(222)] was tested, and the EC (maximum kinetin efficacy) was 8.99 µM and the Emax was 146%.

N#Cc1cc2c(NCc3ccco3)nc(Cl)nc2[nH]1 [(223)] gave an Emax of 95%.

N#CCc1nc2c(NCc3ccco3)nc(Cl)nc2[nH]1 [(224)] was tested, and the EC (maximum kinetin efficacy) was 9.49 µM and the Emax was 139%.

Work on OCCCNc1nc2c(NCc3ccco3)nc(Cl)nc2[nH]1 [(225)] yielded an EC (maximum kinetin efficacy) of 21.1 µM and an Emax of 114%.

Fc1cnccc1CNc1nc(Cl)nc2[nH]ccc12 [(226)] was tested, and the EC (maximum kinetin efficacy) was 1.8 µM and the Emax was 191%.

Fc1cnccc1CNc1nc(Cl)nc2[nH]cnc12 [(227)] was tested, and the EC (maximum kinetin efficacy) was 23.3 µM and the Emax was 163%.

Clc1nc(NCc2ccncc2Cl)c2cc[nH]c2n1 [(228)] gave an EC (maximum kinetin efficacy) of 15.7 µM and an Emax of 152%.

Clc1nc(NCc2ccncc2Cl)c2nc[nH]c2n1 [(229)] was tested, and the Emax was 55%.

Clc1nc(NCc2ccco2)c2nc(C3CCC3)[nH]c2n1 [(231)] was tested, and the Emax was 77%.

Compound COC(=O)c1nc2c(NCc3ccco3)nc(Cl)nc2[nH]1 [(232)] has an Emax of 59%.

With CCOc1nc2c(NCc3ccco3)nc(Cl)nc2[nH]1 [(233)] the EC (maximum kinetin efficacy) was 1.59 µM and the Emax was 152%.

Clc1nc(NCc2ccncc2)c2nc(C3CCC3)[nH]c2n1 [(234)] gave an EC (maximum kinetin efficacy) of 19.9 µM and an Emax of 94%.

Compound CNCc1nc2c(NCc3ccco3)nc(Cl)nc2[nH]1 [(235)] has an Emax of 80%.

Clc1nc(NCc2ccncn2)c2nc(C3CCC3)[nH]c2n1 [(236)] was tested, and the Emax was 83%.

For COc1cc(CNc2nc(Cl)nc3[nH]ccc23)ccn1 [(237)], the Emax was 21%.

Compound NC(=O)c1nc2c(NCc3ccco3)nc(Cl)nc2[nH]1 [(238)] has an EC (maximum kinetin efficacy) of 64.8 µM and an Emax of 64%.

For CC(C)Oc1nc2c(NCc3ccco3)nc(Cl)nc2[nH]1 [(239)], the EC (maximum kinetin efficacy) was 2.6 µM and the Emax was 147%.

With Clc1nc(NCc2nccs2)c2nc(C3CCC3)[nH]c2n1 [(240)] the EC (maximum kinetin efficacy) was 18.2 µM and the Emax was 124%.

Work on COc1cc(CNc2nc(Cl)nc3[nH]cnc23)ccn1 [(241)] yielded an Emax of 13%.

For NC(=O)c1nc2c(NCc3ccncc3)nc(Cl)nc2[nH]1 [(242)], the Emax was 31%.

Compound CCNc1nc2c(NCc3ccco3)nc(Cl)nc2[nH]1 [(243)] has an EC (maximum kinetin efficacy) of 17 µM and an Emax of 120%.

CNc1nc2c(NCc3ccncc3)nc(Cl)nc2[nH]1 [(244)] was tested, and the EC (maximum kinetin efficacy) was 7.05 µM and the Emax was 150%.

In the case of CNc1nc2c(NCc3nccs3)nc(Cl)nc2[nH]1 [(245)], the EC (maximum kinetin efficacy) is reported as 15.4 µM and the Emax is reported as 122%.

Cc1noc(-c2cc3c(NCc4ccco4)nc(Cl)nc3[nH]2)n1 [(246)] showed an Emax of 22%.

CNc1nc2c(NCc3ccncn3)nc(Cl)nc2[nH]1 [(247)] was tested, and the EC (maximum kinetin efficacy) was 5.41 µM and the Emax was 215%.

O=c1cc(CNc2nc(Cl)nc3[nH]ccc23)cc[nH]1 [(248)] gave an Emax of 10%.

OCCCOc1nc2c(NCc3ccco3)nc(Cl)nc2[nH]1 [(249)] showed an EC (maximum kinetin efficacy) of 0.72 µM and an Emax of 256%.

In the case of CNC(=O)c1nc2c(NCc3ccncc3)nc(Cl)nc2[nH]1 [(250)], the EC (maximum kinetin efficacy) is reported as 62.8 µM and the Emax is reported as 63%.

Clc1cc(NCc2ccncc2)c2nc[nH]c2n1 [(251)] gave an EC (maximum kinetin efficacy) of 3.65 µM and an Emax of 258%.

CC(=O)Oc1c[nH]c2nc(Cl)nc(NCc3ccco3)c12 [(252)] was tested, and the Emax was 43%.

Clc1nc(NCc2ccco2)c2ncsc2n1 [(253)] gave an EC (maximum kinetin efficacy) of 11.8 µM and an Emax of 187%.

Work on OCCn1cnc2c(NCc3ccco3)cc(Cl)nc21 [(254)] yielded an EC (maximum kinetin efficacy) of 13.2 µM and an Emax of 145%.

O=c1cc(CNc2nc(Cl)nc3[nH]cnc23)cc[nH]1 [(255)] was tested, and the Emax was 42%.

In the case of Clc1nc(NCc2ccncc2)c2ncsc2n1 [(256)], the EC (maximum kinetin efficacy) is reported as 17.4 µM and the Emax is reported as 129%.

O=C1Cc2c(NCc3ccncc3)nc(Cl)nc2N1 [(257)] was tested, and the Emax was 62%.

Compound CNC(=O)c1nc2c(NCc3ccncn3)nc(Cl)nc2[nH]1 [(258)] has an EC (maximum kinetin efficacy) of 15.8 µM and an Emax of 165%.

Clc1nc(NCc2ccco2)c2nc(OC3CCC3)[nH]c2n1 [(259)] was tested, and the EC (maximum kinetin efficacy) was 0.38 µM and the Emax was 109%.

CCOc1nc2c(NCc3nccs3)nc(Cl)nc2[nH]1 [(260)] gave an EC (maximum kinetin efficacy) of 3.43 µM and an Emax of 130%.

With COc1nc2c(NCc3ccncn3)nc(Cl)nc2[nH]1 [(261)] the EC (maximum kinetin efficacy) was 2.62 µM and the Emax was 143%.

Work on CNC(=O)c1nc2c(NCc3ccco3)nc(Cl)nc2[nH]1 [(262)] yielded an EC (maximum kinetin efficacy) of 28.4 µM and an Emax of 64%.

In the case of Cc1cnccc1CNc1nc(Cl)nc2[nH]ccc12 [(263)], the EC (maximum kinetin efficacy) is reported as 27.4 µM and the Emax is reported as 105%.

Ic1nc(NCc2ccco2)c2nc[nH]c2n1 [(264)] showed an Emax of 44%.

Clc1nc(NCc2nccs2)c2nc(OC3COC3)[nH]c2n1 [(265)] showed an EC (maximum kinetin efficacy) of 7.33 µM and an Emax of 119%.

With Brc1nc(NCc2ccco2)c2nc[nH]c2n1 [(266)] the EC (maximum kinetin efficacy) was 8.52 µM and the Emax was 106%.

Work on Clc1nc(NCc2ccncn2)c2nc(OC3COC3)[nH]c2n1 [(267)] yielded an EC (maximum kinetin efficacy) of 2.4 µM and an Emax of 183%.

For Cc1cnccc1CNc1nc(Cl)nc2[nH]cnc12 [(268)], the Emax was 19%.

Clc1nc(NCc2ccncc2)c2nc(OC3COC3)[nH]c2n1 [(272)] was tested, and the EC (maximum kinetin efficacy) was 2.6 µM and the Emax was 155%.

CCOc1nc2c(NCc3ccncc3)nc(Cl)nc2[nH]1 [(273)] was tested, and the EC (maximum kinetin efficacy) was 0.62 µM and the Emax was 254%.

Compound OCCCOc1nc2c(NCc3nccs3)nc(Cl)nc2[nH]1 [(276)] has an EC (maximum kinetin efficacy) of 1.13 µM and an Emax of 188%.

Work on CC(C)Oc1nc2c(NCc3ccncc3)nc(Cl)nc2[nH]1 [(277)] yielded an EC (maximum kinetin efficacy) of 0.46 µM and an Emax of 197%.

Work on COc1nc2c(NCc3nccs3)nc(Cl)nc2n1CCO [(278)] yielded an EC (maximum kinetin efficacy) of 6.37 µM and an Emax of 141%.

In the case of Nc1nc(NCc2ccco2)c2nn[nH]c2n1 [(279)], the Emax is reported as 54%.

With CNOc1nc2c(NCc3ccco3)nc(Cl)nc2[nH]1 [(280)] the Emax was 25%.

Clc1cc(NCc2nccs2)n2ncnc2n1 [(281)] gave an Emax of 17%.

Compound CCCOc1nc2c(NCc3ccncc3)nc(Cl)nc2[nH]1 [(282)] has an EC (maximum kinetin efficacy) of 0.42 µM and an Emax of 233%.

Work on Clc1cc(NCc2ccncc2)n2ncnc2n1 [(283)] yielded an Emax of 29%.

Clc1cc(NCc2ccco2)n2ncnc2n1 [(284)] showed an Emax of 27%.

Clc1cc(NCc2ccncn2)n2ncnc2n1 [(286)] gave an Emax of 38%.

With COc1nc2c(NCc3ccncc3)nc(Cl)nc2n1CCO [(287)] the EC (maximum kinetin efficacy) was 7.56 µM and the Emax was 106%.

Clc1cc(NCc2ccco2)n2ccnc2n1 [(288)] showed an Emax of 56%.

For Clc1nc(NCc2nccs2)c2nc(OC3CCC3)[nH]c2n1 [(289)], the EC (maximum kinetin efficacy) was 0.87 µM and the Emax was 128%.

COCCOc1nc2c(NCc3ccncc3)nc(Cl)nc2[nH]1 [(290)] showed an EC (maximum kinetin efficacy) of 2.04 µM and an Emax of 238%.

COCCCOc1nc2c(NCc3ccncc3)nc(Cl)nc2[nH]1 [(291)] was tested, and the EC (maximum kinetin efficacy) was 3.47 µM and the Emax was 165%.

With CCCOc1nc2c(NCc3ccco3)nc(Cl)nc2[nH]1 [(292)] the EC (maximum kinetin efficacy) was 0.24 µM and the Emax was 312%.
